Results taken from patent publication US11154589B2, “Antimicrobial composition combinations comprising star shaped peptide polymers” (The University of Melbourne, priority 2016, dated 2021).
Where “and” joins values, the source holds several entries; their conditions need not be identical. Identical values can stand only once. Marks after values point to notes of the source that are not given here.

How the values were obtained:
[1] = test system: CMDR A. baumannii (FADDI-AB156); assay: S16-antibiotic co-administration, synergy by Bliss Independence and HSA models; assay type: cell-based, Acinetobacter baumannii
Experimental: (§1) The 96-well plate was then incubated at 37° C. for 1.5 or 3 h. For each well, microbial solution was diluted with saline (0.9% NaCl solution) using an appropriate dilution factor and placed on a LB agar plate (LB broth containing 15 g/L Oxoid Blood Agar Base No. 2). For E. coli, K. pneumoniae, and A. Baumannii (ATCC 19606 and FADDI-AB156), the agar plates were incubated overnight at room temperature, and then at 37° C. with aeration for 2 h. For P. Aeruginosa (ATCC 47085 and FADDI-PA067), the agar plates were incubated at 37° C. with aeration. The number of colony-forming units (CFU) was counted and expressed as CFU/mL. Positive controls consisting of cells without any treatment were used. […] A minimum of two independent experiments (biological replicates) of the assay were conducted and three technical replicates were used in each experiment. Data is expressed as mean±standard deviation (SD) and analysed using student's t-test.
(§2) The Bliss Independence and HSA models were used to calculate drug synergism. […] Biotechnol. 31, 160-165 (2013). With the Bliss Independence model, synergism was calculated using the formula, BICAB=A+B−AB (1), where A and B are the effects of the two drugs in isolation and BICAB is the combined effect of the two drugs as predicted by the Bliss Independence model. […] In the HSA model, if CAB is greater than the greater of A and B, CAB>max(A, B), synergy is observed. The quantitative effect of the compounds when administered alone (i.e., A and B) or in combination (i.e., CAB) was defined as the fractional reduction of the population, R=1−CFUt/CFU0, where CFUt is the CFU/mL measured after treatment, and CFU0 is the CFU/mL measured before treatment.

[2] = test system: rat hepatoma (H4IIE) cells; assay: Apoptosis/necrosis assay (mammalian cell viability); conditions: single agent at a dose equivalent to its MBC (against CMDR A. baumannii); 90 min incubation
Experimental: Rat hepatoma cells (H4IIE) were cultivated in DMEM medium (supplemented with 10% FBS, 1× GlutaMAX™, and 1× penicillin-streptomycin) in a humidified atmosphere containing 5% CO2 at 37° C. Cells were seeded in a T75 flask (ca. 3×10^6 cells/ml) and passaged twice a week prior to performing the subsequent cell viability studies.
Adherent H4IIE cells (obtained from the ATCC, and throughout the course of the study cells were checked for mycoplasma contamination using Mycoplasma stain kit, Myc1, Sigma) were grown to 80% confluence and trypsinised prior to assay. H4IIE cells were chosen for this study as they are standard cell lines used in toxicity studies. Cells were diluted 1:2 with ‘complete’ DMEM and seeded in a 24-well plate (1 mL per well). The cells were incubated at 37° C. in 5% CO2 for 24 h until ca. 95% confluence. The medium was removed. […] The cells were then harvested and all well contents were transferred to round-bottomed polypropylene tubes (5 mL). The cells were washed with cold DPBS, then stained with YO-PRO®-1 and PI (0.2 mL from a stock solution, whereby both dyes were diluted 1:1000 in cold DPBS, per well), and incubated on ice for 20 to 30 min. The cells were analyzed by flow cytometry (Cytomics FC 500 MPL System). Standard compensation was performed using single-colour stained cells. Negative controls using untreated cells were included. […]

[3] = test system: Escherichia coli (E. coli, ATCC 25922); assay: S16-antibiotic co-administration, synergy by Bliss Independence and HSA models; assay type: cell-based
Experimental: as §1, §2

[4] = test system: Klebsiella pneumoniae (K. pneumoniae, ATCC 13883); assay: as above; assay type: cell-based
Experimental: as §1, §2

[5] = test system: Acinetobacter baumannii (A. baumannii, ATCC 19606); assay: as above; assay type: cell-based
Experimental: as §1, §2

[6] = test system: Pseudomonas aeruginosa (P. aeruginosa, ATCC 47085); assay: as above; assay type: cell-based
Experimental: as §1, §2

[7] = test system: Escherichia coli (E. coli, ATCC 25922); assay: MBC determination (in vitro antimicrobial experiment, CFU counting); assay type: cell-based; conditions: compound alone
Experimental: (§3) Freeze-dried cultures of Escherichia coli (E. coli, ATCC 25922), Klebsiella pneumoniae (K. pneumoniae, ATCC 13883), Pseudomonas aeruginosa (P. aeruginosa, ATCC 47085), Acinetobacter baumannii (A. baumannii, ATCC 19606), colistin and multidrug-resistant (CMDR) A. baumannii (FADDI-AB156), and CMDR P. aeruginosa (FADDI-PA067) were grown aerobically and maintained by passage at ambient temperature on horse blood agar (10% v/v defibrinated horse blood, 4.4% w/v Oxoid Blood Agar Base No. 2). Overnight cultures were made from transferring a colony (ca. half a loop) from the agar plates to culture tubes containing sterilized Luria-Bertani broth (LB, 1% w/v Bacto™ Tryptone, 1% w/v NaCl, 0.5% w/v Oxoid Yeast Extract) (20 mL). Bacterial cultures were incubated overnight at 37° C. with aeration and without agitation, with the exception of the two P. aeruginosa strains (ATCC 47085 and FADDI-PA067) which were cultured at 37° C. with aeration and agitation (150 rpm). On the next day, for E. coli, K. pneumonia, P. aeruginosa (ATCC 47085), and CMDR P. aeruginosa (FADDI-PA067), small aliquots (i.e., 0.5-3 mL) were taken from the culture tubes, further diluted with LB (20 mL), and incubated for 3-4 h at 37° C. with aeration before use. All bacterial cultures were cultured without agitation, with the exception of P. aeruginosa ATCC 47085 and FADDI-PA067 which were cultured with shaking at 150 rpm. For A. baumannii, an aliquot of 0.5 mL was taken from the overnight culture tube, further diluted with LB (200 mL), and incubated overnight at 37° C. with aeration before use.
as §1

[8] = test system: Klebsiella pneumoniae (K. pneumoniae, ATCC 13883); assay: as above; assay type: cell-based; conditions: compound alone
Experimental: as §3, §1

[9] = test system: Acinetobacter baumannii (A. baumannii, ATCC 19606); assay: as above; assay type: cell-based; conditions: compound alone; A. baumannii (wild-type)
Experimental: as §3, §1

[10] = test system: Pseudomonas aeruginosa (P. aeruginosa, ATCC 47085); assay: as above; assay type: cell-based; conditions: compound alone; P. aeruginosa (wild-type)
Experimental: as §3, §1

[11] = test system: CMDR P. aeruginosa (FADDI-PA067); assay: S16-antibiotic co-administration, synergy by Bliss Independence and HSA models; assay type: cell-based, Pseudomonas aeruginosa
Experimental: as §1, §2

[12] = test system: CMDR P. aeruginosa (FADDI-PA067); assay: MBC determination (in vitro antimicrobial experiment, CFU counting); assay type: cell-based, Pseudomonas aeruginosa; conditions: compound alone
Experimental: as §3, §1

[13] = test system: CMDR A. baumannii (FADDI-AB156); assay: as above; assay type: cell-based, Acinetobacter baumannii; conditions: compound alone
Experimental: as §3, §1

[14] = S16 and antibiotic co-administered, each at MBC50, 3 h
[15] = antibiotic in combination with S16, 3 h, Bliss Independence model
[16] = antibiotic in combination with S16, 3 h, Highest Single Agent model
[17] = co-administered S16 (at MBC50) and antibiotic, antibiotic concentration giving at least 2-log reduction in CFU/mL, 3 h

## O=[N+]([O-])[O-].[Ag+] [Ag^+, silver nitrate]
[1]; 3 h time point
  Interaction with S16 as evaluated by the Bliss Independence and HSA models (in words): synergize
[1]; MBCeff in combination versus MBC alone
  Fold reduction of MBC: 3.7 fold
[1]; [14]
  MBC in combination: 2.9 µM
[1]; all compounds at MBC50, t=3 h
  Antimicrobial activity on co-administration with S16 compared to compounds alone (log change in CFU/mL): Enhanced antimicrobial activity
[1]; [15]
  Synergistic? (Yes/No) Bliss*: Yes
[1]; [16]
  Synergistic? (Yes/No) HAS*: Yes
[1]; [17]
  MBC in combination, MBCeff: 2.9 μM and 2.9^a μM
[2]
  H4IIE cell viability reduced by, compared to the untreated control: 33%
[3]; 3 h time point
  Interaction with S16 as evaluated by the Bliss Independence and HSA models (in words): synergize
[3]; [14]
  MBC in combination: 1.8 µM
[3]; all compounds at MBC50, t=3 h
  Antimicrobial activity on co-administration with S16 compared to compounds alone (log change in CFU/mL): significantly enhanced antimicrobial activity
[3]; [15]
  Synergistic? (Yes/No) Bliss*: Yes
[3]; [16]
  Synergistic? (Yes/No) HAS*: Yes
[4]; 3 h time point
  Interaction with S16 as evaluated by the Bliss Independence and HSA models (in words): synergize
[4]; [14]
  MBC in combination: 5.3 µM
[4]; all compounds at MBC50, t=3 h
  Antimicrobial activity on co-administration with S16 compared to compounds alone (log change in CFU/mL): significantly enhanced antimicrobial activity
[4]; [15]
  Synergistic? (Yes/No) Bliss*: Yes
[4]; [16]
  Synergistic? (Yes/No) HAS*: Yes
[5]; A. baumannii wild-type, 3 h time point
  Interaction with S16 as evaluated by the Bliss Independence and HSA models (in words): synergize
[5]; A. baumannii wild-type, all compounds at MBC50, t=3 h
  Antimicrobial activity on co-administration with S16 compared to compounds alone (log change in CFU/mL): significantly enhanced antimicrobial activity
[5]; A. baumannii, S16 and antibiotic co-administered, each at MBC50, 3 h
  MBC in combination: 4.1 µM
[5]; antibiotic in combination with S16, A. baumannii, 3 h, Bliss Independence model
  Synergistic? (Yes/No) Bliss*: Yes
[5]; antibiotic in combination with S16, A. baumannii, 3 h, Highest Single Agent model
  Synergistic? (Yes/No) HAS*: Yes
[6]; P. aeruginosa wild-type, 3 h time point
  Interaction with S16 as evaluated by the Bliss Independence and HSA models (in words): synergize
[6]; P. aeruginosa wild-type, all compounds at MBC50, t=3 h
  Antimicrobial activity on co-administration with S16 compared to compounds alone (log change in CFU/mL): significantly enhanced antimicrobial activity
[6]; P. aeruginosa, S16 and antibiotic co-administered, each at MBC50, 3 h
  MBC in combination: 0.5 µM
[6]; antibiotic in combination with S16, P. aeruginosa, 3 h, Bliss Independence model
  Synergistic? (Yes/No) Bliss*: Yes
[6]; antibiotic in combination with S16, P. aeruginosa, 3 h, Highest Single Agent model
  Synergistic? (Yes/No) HAS*: Yes
[7]
  MBC: 3.5 µM
[8]
  MBC: 10.6 µM
[9]
  MBC: 8.2 µM
[10]
  MBC: 1.2 µM
[11]; 3 h time point
  Interaction with S16 as evaluated by the Bliss Independence and HSA models (in words): synergize
[11]; MBCeff with S16 versus MBC alone
  Fold reduction of MBC: 6.5 fold
[11]; [14]
  MBC in combination: 11.8 µM
[11]; all compounds at MBC50, t=3 h
  Antimicrobial activity on co-administration with S16 compared to compounds alone (log change in CFU/mL): Enhanced antimicrobial activity
[11]; [15]
  Synergistic? (Yes/No) Bliss*: Yes
[11]; [16]
  Synergistic? (Yes/No) HAS*: Yes
[11]; [17]
  MBC in combination, MBCeff: 5.9^a μM
[12]
  MBC: 38.3 µM
[13]
  MBC: 10.6 µM
